Laboratory results as given in patent publication US10155749B2, “Substituted benzimidazolium compounds useful in the treatment of respiratory diseases” (Boehringer Ingelheim International GmbH, priority 2015, dated 2018).

Molecular target: T1, ENaC (Epithelial Sodium Channel) (Mus musculus, UniProt Q61180+Q9WU38+Q9WU39)
T1 construct: Mouse kidney M-1 cells were cultivated in DMEM containing 5% FCS and 5 μM dexamethasone; endogenous in cells; host or cells: Mouse kidney M-1 cells
T1 sequence (Q61180 1-699): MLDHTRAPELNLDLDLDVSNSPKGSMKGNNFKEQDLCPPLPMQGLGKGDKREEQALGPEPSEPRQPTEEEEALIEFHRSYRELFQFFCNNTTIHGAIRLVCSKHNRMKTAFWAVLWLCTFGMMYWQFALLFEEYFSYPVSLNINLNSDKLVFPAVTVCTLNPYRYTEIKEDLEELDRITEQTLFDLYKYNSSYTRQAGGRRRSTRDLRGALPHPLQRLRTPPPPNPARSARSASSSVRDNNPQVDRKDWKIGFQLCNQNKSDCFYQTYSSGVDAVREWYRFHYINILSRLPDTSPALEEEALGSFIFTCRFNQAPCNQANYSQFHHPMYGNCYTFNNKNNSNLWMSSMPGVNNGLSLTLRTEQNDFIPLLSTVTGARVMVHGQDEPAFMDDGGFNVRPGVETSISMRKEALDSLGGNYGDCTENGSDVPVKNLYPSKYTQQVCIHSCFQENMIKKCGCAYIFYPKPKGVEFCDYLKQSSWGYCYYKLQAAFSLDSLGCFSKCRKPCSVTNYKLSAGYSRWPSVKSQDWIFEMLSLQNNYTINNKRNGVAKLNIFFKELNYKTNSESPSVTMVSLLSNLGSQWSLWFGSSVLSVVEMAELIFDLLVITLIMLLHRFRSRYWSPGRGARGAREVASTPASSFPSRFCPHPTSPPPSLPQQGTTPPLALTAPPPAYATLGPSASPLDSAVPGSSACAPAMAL
T1 sequence (Q9WU38 1-638): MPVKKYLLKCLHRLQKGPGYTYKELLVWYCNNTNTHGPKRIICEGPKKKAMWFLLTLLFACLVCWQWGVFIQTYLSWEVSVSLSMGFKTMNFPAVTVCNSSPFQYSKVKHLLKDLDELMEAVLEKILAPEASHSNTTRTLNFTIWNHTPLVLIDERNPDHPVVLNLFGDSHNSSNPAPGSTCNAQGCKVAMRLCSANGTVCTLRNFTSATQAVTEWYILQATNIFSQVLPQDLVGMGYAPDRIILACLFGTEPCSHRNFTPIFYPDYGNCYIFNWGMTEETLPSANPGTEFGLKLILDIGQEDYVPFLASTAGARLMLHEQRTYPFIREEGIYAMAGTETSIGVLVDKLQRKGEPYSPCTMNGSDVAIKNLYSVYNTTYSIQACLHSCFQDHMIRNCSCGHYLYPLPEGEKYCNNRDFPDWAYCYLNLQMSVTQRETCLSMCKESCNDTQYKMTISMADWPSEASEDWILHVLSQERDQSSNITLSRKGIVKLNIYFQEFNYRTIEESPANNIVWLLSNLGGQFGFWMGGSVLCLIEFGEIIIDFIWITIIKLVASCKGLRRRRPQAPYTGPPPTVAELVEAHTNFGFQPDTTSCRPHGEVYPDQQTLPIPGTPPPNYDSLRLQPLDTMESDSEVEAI
T1 sequence (Q9WU39 1-655): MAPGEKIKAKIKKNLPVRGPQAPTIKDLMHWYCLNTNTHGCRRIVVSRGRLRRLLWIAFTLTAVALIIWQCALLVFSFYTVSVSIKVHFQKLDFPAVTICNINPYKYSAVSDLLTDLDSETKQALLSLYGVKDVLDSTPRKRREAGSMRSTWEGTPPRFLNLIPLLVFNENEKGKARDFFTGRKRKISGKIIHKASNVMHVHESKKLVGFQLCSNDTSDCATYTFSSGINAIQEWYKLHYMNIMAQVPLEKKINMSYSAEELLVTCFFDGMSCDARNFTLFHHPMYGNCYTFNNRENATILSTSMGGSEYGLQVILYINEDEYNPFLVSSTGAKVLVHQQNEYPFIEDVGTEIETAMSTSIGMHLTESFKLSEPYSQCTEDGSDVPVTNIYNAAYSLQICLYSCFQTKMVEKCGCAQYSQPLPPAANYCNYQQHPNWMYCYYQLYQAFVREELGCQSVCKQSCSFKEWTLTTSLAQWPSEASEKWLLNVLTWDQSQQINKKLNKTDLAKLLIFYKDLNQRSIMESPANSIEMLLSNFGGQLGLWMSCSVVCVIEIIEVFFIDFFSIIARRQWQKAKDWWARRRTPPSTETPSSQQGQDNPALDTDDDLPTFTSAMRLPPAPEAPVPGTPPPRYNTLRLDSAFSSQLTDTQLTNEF
Experiment: Ussing Chamber assay (short circuit current, amiloride sensitive I_SC) in M-1 cells
Format: cell-based
Conditions: Mouse kidney M-1 cells, apical application, 37° C.
Experimental: The IC50 values of the example compounds given above were determined in the Ussing Chamber assay.
Ussing Chamber: Mouse kidney M-1 cells were cultivated in DMEM containing 5% FCS and 5 μM dexamethasone for 10 to 12 days on polyester transwell filters. Filters were inserted into a teflon-coated well-plate which fit into the ussing chamber system. Prior to measurement the medium of M-1 cells was replaced with Caco-2 transport buffer (Invitrogen, Germany). During measurements, the Ussing chamber temperature was kept at 37° C. Short circuit currents (I_sc) were measured in the voltage-clamp mode with the software package Lab View for data acquisition and analysis. The transepithelial electrical resistance (TEER) was determined by the application of voltage steps of ±5 mV every 5 sec. Compounds were administered at a final concentration of 3 μM or at increasing concentrations (1-3-10 μM) to the apical solution. At the end of each experiment the amiloride sensitive I_SC was measured by adding 3 μM amiloride to the apical compartment. Results are expressed as inhibition in percent of the amiloride effect or as IC50.

Structure (SMILES) | IC50 [nM]
CCn1c(CNC(=O)c2nc(Cl)c(N)nc2N)[n+](CC)c2cc(C(=O)NC3CCNCC3)c(F)cc21 [Example 6.06] | 0.4
CCn1c(CNC(=O)c2nc(Cl)c(N)nc2N)[n+](CC)c2ccc(OCCNC(=O)C3CCCN3)cc21 (stereo not shown) [Example 6.04] | 0.4
CCNC(=O)CN1CCC(NC(=O)c2cc3c(cc2F)[n+](CC)c(CNC(=O)c2nc(Cl)c(N)nc2N)n3CC)CC1 [Example 3.10] | 1
CCNC(=O)c1cc2c(cc1OCC(=O)NC1CCNCC1)n(CC)c(CNC(=O)c1nc(Cl)c(N)nc1N)[n+]2CC [Example 6.08] | 1
CCn1c(CNC(=O)c2nc(Cl)c(N)nc2N)[n+](CC)c2ccc(OCCNC(=O)[C@H](C)N)cc21 [Example 6.07] | 0.4
CC[n+]1c(CNC(=O)c2nc(Cl)c(N)nc2N)n(CCO)c2cc(OCC(=O)NC3CCN(C(C)=O)CC3)ccc21 [Example 1.04] | 2
CC[n+]1c(CNC(=O)c2nc(Cl)c(N)nc2N)n(C[C@H](C)O)c2cc(N(C)C)c(C(=O)N3CCNCC3)cc21 [Example 8.01] | 6
CCNC(=O)COc1cc2c(cc1C(=O)NC1CCN(C(C)=O)CC1)[n+](CC)c(CNC(=O)c1nc(Cl)c(N)nc1N)n2CC [Example 4.13] | 4
CCCCCCN1CCC(NC(=O)COc2cc3c(cc2C(=O)NCC)[n+](CC)c(CNC(=O)c2nc(Cl)c(N)nc2N)n3CC)CC1 [Example 3.20] | 15
CCn1c(CNC(=O)c2nc(Cl)c(N)nc2N)[n+](CC)c2ccc(C(=O)NCCNS(C)(=O)=O)cc21 [Example 3.14] | 0.4
CCNC(=O)c1cc2c(cc1OCC(=O)OC(C)(C)C)n(CC)c(CNC(=O)c1nc(Cl)c(N)nc1N)[n+]2CC [Example 1.11] | 10
CCNC(=O)COc1cc2c(cc1C(=O)NC1CCNCC1)[n+](CC)c(CNC(=O)c1nc(Cl)c(N)nc1N)n2CC [Example 6.03] | 8
CCOc1cc2c(cc1C(=O)N1CCN(C(=O)c3cncc(O)c3)CC1)[n+](CC)c(CNC(=O)c1nc(Cl)c(N)nc1N)n2CC [Example 4.16] | 2
CCn1c(CNC(=O)c2nc(Cl)c(N)nc2N)[n+](CC)c2cc(C(=O)NC3CCN(C(=O)OC(C)(C)C)CC3)c(OCC(=O)OC(C)(C)C)cc21 [Example 1.13] | 9
CCn1c(CNC(=O)c2nc(Cl)c(N)nc2N)[n+](CC)c2ccc(OCC(=O)Nc3cncc(OCc4ccccc4)c3)cc21 [Example 3.13] | 2
CCn1c(CNC(=O)c2nc(Cl)c(N)nc2N)[n+](CC)c2cc(C(=O)O)c(N3CCOCC3)cc21 [Example 6.01] | 14
CCn1c(CNC(=O)c2nc(Cl)c(N)nc2N)[n+](CC)c2ccc(OCC(=O)N(C)Cc3nc(C)ccc3[O-])cc21 [Example 3.02] | 0.4
CCNC(=O)COc1cc2c(cc1C(=O)NC1CCN(C(=O)OC(C)(C)C)CC1)[n+](CC)c(CNC(=O)c1nc(Cl)c(N)nc1N)n2CC [Example 3.23] | 8
CCCCCOc1cc2c(cc1C(=O)N1CCNCC1)[n+](CC)c(CNC(=O)c1nc(Cl)c(N)nc1N)n2C[C@H](C)O [Example 8.03] | 8
CCCCCC(=O)N(CCOc1ccc2c(c1)n(C[C@H](C)O)c(CNC(=O)c1nc(Cl)c(N)nc1N)[n+]2CC)CP(C)(C)=O [Example 1.06] | 2

Structure (SMILES) | IC50 [nM]
CCn1c(CNC(=O)c2nc(Cl)c(N)nc2N)[n+](CC)c2ccc(CNC(=O)Cc3ncccc3O)cc21 [Example 4.03] | 0.4
CCNC(=O)c1cc2c(cc1OCC(=O)NCCOC)n(CC)c(CNC(=O)c1nc(Cl)c(N)nc1N)[n+]2CC [Example 3.21] | 9
CCCn1c(CNC(=O)c2nc(Br)c(N)nc2N)[n+](C)c2ccc(OCC(=O)N(C)Cc3nc(C)ccc3O)cc21 [Example 2.01] | 1
CCn1c(CNC(=O)c2nc(Cl)c(N)nc2N)[n+](CC)c2ccc(OCC(=O)NC3CCNCC3)cc21 [Example 3.24] | 0.1
CCn1c(CNC(=O)c2nc(Cl)c(N)nc2N)[n+](CC)c2cc(C(=O)NC3CCN(C(=O)OC(C)(C)C)CC3)c(OCC(=O)O)cc21 [Example 9.01] | 9
CCn1c(CNC(=O)c2nc(Cl)c(N)nc2N)[n+](CC)c2ccc(OCCNC(=O)[C@H](C)N(C)C(=O)OC(C)(C)C)cc21 [Example 4.08] | 2
CCNC(=O)c1cc2c(cc1OCC(=O)NC1CCN(C(=O)OC(C)(C)C)CC1)n(CC)c(CNC(=O)c1nc(Cl)c(N)nc1N)[n+]2CC [Example 3.19] | 9
CCN1CCC(NC(=O)COc2ccc3c(c2)n(CC)c(CNC(=O)c2nc(Cl)c(N)nc2N)[n+]3CC)CC1 [Example 3.09] | 0.2
CCn1c(CNC(=O)c2nc(Cl)c(N)nc2N)[n+](CC)c2cc(F)c(C(=O)NCCCN(C)C)cc21 [Example 3.07] | 1
CCn1c(CNC(=O)c2nc(Cl)c(N)nc2N)[n+](CC)c2cc(C(=O)NC3CCNCC3)c(OCC(=O)NC3CCN(C)CC3)cc21 [Example 3.22] | 10
CCOc1cc2c(cc1C(=O)N1CCNCC1)[n+](CC)c(CNC(=O)c1nc(Cl)c(N)nc1N)n2CC [Example 8.02] | 1
CCCCCOc1cc2c(cc1C(=O)N1CCN(C(=O)c3cncc(O)c3)CC1)[n+](CC)c(CNC(=O)c1nc(Cl)c(N)nc1N)n2C[C@H](C)O [Example 4.18] | 19
CCn1c(CNC(=O)c2nc(Cl)c(N)nc2N)[n+](CC)c2ccc(C(=O)NCCNC(C)=O)cc21 [Example 3.08] | 0.4
CCCCCOc1cc2c(cc1C(=O)N1CCN(C(=O)OC(C)(C)C)CC1)[n+](CC)c(CNC(=O)c1nc(Cl)c(N)nc1N)n2C[C@H](C)O [Example 1.10] | 52
CCn1c(CNC(=O)c2nc(Cl)c(N)nc2N)[n+](CC)c2ccc(OCC(=O)Nc3cncc([O-])c3)cc21 [Example 3.03] | 0.3
CCN(CC)CC(=O)NCCOc1ccc2c(c1)n(CC)c(CNC(=O)c1nc(Cl)c(N)nc1N)[n+]2CC [Example 4.04] | 1
CCCCCCN1CCC(NC(=O)COc2ccc3c(c2)n(CC)c(CNC(=O)c2nc(Cl)c(N)nc2N)[n+]3CC)CC1 [Example 3.04] | 0.6
CCOc1cc2c(cc1C(=O)N1CCN(C(=O)OC(C)(C)C)CC1)[n+](CC)c(CNC(=O)c1nc(Cl)c(N)nc1N)n2CC [Example 1.09] | 7
CCn1c(CNC(=O)c2nc(Cl)c(N)nc2N)[n+](CC)c2ccc(OCCNC(=O)C3CCCN3C(=O)OC(C)(C)C)cc21 (stereo not shown) [Example 4.11] | 2
CCn1c(CNC(=O)c2nc(Cl)c(N)nc2N)[n+](CC)c2ccc(OCCNC(=O)CN3CCCC3)cc21 [Example 4.07] | 1
